Measured values reported in US11452752B2, “Composition for antioxidation, anti-inflammation, or osteoclast differentiation inhibition” (NATURAL ENDOTECH CO., LTD., priority 2017, dated 2022).

Assays:
[1] = test system: osteoclast differentiation of Raw 264.7 cells; assay: RANKL-induced osteoclast differentiation inhibition (osteoclast count); type: cell-based; conditions: Mus musculus, RAW264.7, 96 h; 10 mM; 50 ng/mL RANKL, 4 days; read-out: osteoclast differentiation inhibitory effect
Description: The media were removed after the incubation, followed by washing with PBS, and then the cells were fixed and stained using a leukocyte acid phosphatase kit (Sigma). After the staining, the osteoclasts were counted using a microscope, and the osteoclast count in a sample was expressed as a percentage relative to the control.

[2] = test system: nitric oxide (NO) production in RAW264.7 cells; assay: Nitric oxide (NO) production inhibition, GRIESS assay, LPS-stimulated cells; type: cell-based; conditions: 12.5 μM; 500 ng/mL LPS, 24 hours
Description: After the incubation, 100 μL of the supernatant was taken and transferred into a 96-well plate, and 100 μL of GRIESS solution was added, followed by incubation for 10 minutes. Thereafter, the absorbance was measured at 540 nm using a microplate reader to determine the NO production inhibitory effect.

NCCCC(O)(P(=O)(O)O)P(=O)(O)O [alendronate]
inhibition at 10000 µM [1]: 72.2%

Cc1ccc(-c2cc(C(F)(F)F)nn2-c2ccc(S(N)(=O)=O)cc2)cc1 [celecoxib]
NO production [2]: 46.7%
